Results on four compounds are retold here after US20260137687A1, “GTPase INHIBITORS AND USES THEREOF” (The Regents of The University of California, priority 2022, published 2026).

Data set [1] addresses T1, K-Ras(G12R)·GDP (Homo sapiens, UniProt P01116, G12R).
T1 construct: human K-Ras (G12R, aa 1-169); 6xHis tag + TEV cleavage site (N, cleaved yes); made in house; host or cells: E. coli BL21(DE3)
As to the kind of experiment: Intact protein mass spectrometry, covalent modification. It is filed as binding. The note with it: 100 μM compound, pH 7.5, 23° C.; adducts +656 Da and +638 Da. As to the method: Purified K-Ras variants (4 μM final) were incubated with compounds at 50 or 100 μM (1% v/v DMSO final) in 20 mM HEPES pH 7.5, 150 mM NaCl, 1 mM MgCl2 in a total volume of 150 μL. After the noted time, the samples were analyzed by intact protein LC/MS using a Waters Xevo G2-XS system equipped with an Acquity UPLC BEH C4 1.7 μm column. The mobile phase was a linear gradient of 5-95% acetonitrile/water+0.05% formic acid. The spectra were processed using QuantLynx, giving the ion counts observed for the most abundant species. For assays conducted under an alternate pH, the HEPES buffer was replaced with one of the following buffers (maintaining 150 mM NaCl and 1 mM MgCl2): 20 mM MES pH 6 or 20 mM Tris pH 9.

Data set [2] concerns the target T2, K-Ras(G12R) Cyslight bound by GDP (Homo sapiens, UniProt P01116, C118S/C51S/C80L/G12R).
T2 construct: human K-Ras G12R Cyslight (G12R/C51S/C80L/C118S, aa 1-169); 6xHis tag + TEV cleavage site (N, cleaved yes); made in house; host or cells: E. coli BL21(DE3)
In words: LC-MS analysis of adduct formation for crystallization. It is filed as binding. To be noted: 100 μM protein, 200 μM compound, 23° C. The procedure:
K-Ras(G12R) Cyslight ([…]/C51S/C80L/C118S) bound by GDP purified by size exclusion chromatography was diluted to 100 μM in Reaction Buffer (20 mM HEPES 7.5, 150 mM NaCl, 1 mM MgCl2). […] The reaction mixture was purified by size exclusion chromatography (Superdex75, 20 mM HEPES 7.5, 150 mM NaCl, 1 mM MgCl2) and concentrated to 20 mg/mL. For crystallization, 0.1 μL of the protein was mixed with 0.1 μL well buffer containing 0.1 M MES pH 6.5, 30% w/v PEG 4K. Crystals were grown at 20° C. in a 96-well plate using the hanging-drop vapor diffusion method. Maximal crystal growth was achieved after 7 days. The crystals were transferred to a cryoprotectant solution (0.1 M MES pH 6.5, 30% w/v PEG 4K, 15% glycerol) and flash-frozen in liquid nitrogen.

Data set [3] has as its system BaF3/G12R cells (±IL-3), TCC-Pan-2 cells, and A375 cells. As to the kind of experiment: Cellular activity (phospho-ERK immunoblot, growth inhibition). The note with it: at concentrations below 100 μM. The format is cell-based. The procedure:
When indicated, cells were treated with drugs at 40-60% confluency at a final DMSO concentration of 1%. At the end of treatment period, cells were placed on ice. Unless otherwise indicated, adherent cells were washed once with ice-cold PBS (1 mL), scraped with a spatula, and pelleted by centrifugation (500×g, 5 min). Suspension cells were pelleted by centrifugation (500×g, 5 min), washed with 1 mL ice-cold PBS, and pelleted again. Cells were lysed in RIPA buffer supplemented with protease and phosphatase inhibitors (cOmplete and phosSTOP, Roche) on ice for 10 min. Lysates were clarified by high-speed centrifugation (19,000×g, 10 min). Concentrations of lysates were determined with protein BCA assay (Thermo Fisher) and adjusted to 2 mg/mL with additional RIPA buffer (or Co-IP Lysis Buffer). Samples were mixed with 5×SDS Loading Dye and heated at 95° C. for 5 min.
Cells were seeded into 96-well white flat bottom plates (1,000 cells/well) (Corning) and incubated overnight. Cells were treated with the indicated compounds in a nine-point threefold dilution series (100 μL final volume) and incubated for 72 h. Cell viability was assessed using a commercial CellTiter-Glo (CTG) luminescence-based assay (Promega). […] Plates were placed on an orbital shaker for 30 min before recording luminescence using a Spark 20M (Tecan) plate reader.

The conditions of data set [4]: permeability controls; cited from earlier work.

Each structure is given as a SMILES string.

As to `CC(=O)CC(=O)N1[C@@H]2CC[C@H]1CN(c1nc(OCC34CCCN3CCC4)nc3c(F)c(-c4cccc5cccc(Cl)c45)ncc13)C2` [compound 2, 1-((1R,5S)-3-(7-(8-chloronaphthalen-1-yl)-8-fluoro-2-((tetrahydro-1H-pyrrolizin-7a(5H)-yl)methoxy)pyrido[4,3-d]pyrimidin-4-yl)-3,8-diazabicyclo[3.2.1]octan-8-yl)butane-1,3-dione], in data set [1], the “covalent adduct formation with recombinant K-Ras(G12R)·GDP” value is “did not form any detectable covalent adduct”. Consider `CC(=O)C(O)(O)C(=O)N1CCN(c2nc(OCC34CCCN3CCC4)nc3c(F)c(-c4cccc5cccc(Cl)c45)ncc23)C[C@@H]1CC#N` [compound 4, (S)-2-(4-(7-(8-chloronaphthalen-1-yl)-8-fluoro-2-((tetrahydro-1H-pyrrolizin-7a(5H)-yl)methoxy)pyrido[4,3-d]pyrimidin-4-yl)-1-(2,2-dihydroxy-3-oxobutanoyl)piperazin-2-yl)acetonitrile], for which the “conversion of K-Ras(G12R) Cyslight·GDP to covalent adduct” value in data set [2] was “full conversion to a single covalent adduct”. Moreover, the cellular activity result in data set [3] is reported as “did not show cellular activity”. As for `O=C(O)Cc1ccccc1Nc1c(Cl)cccc1Cl` [Diclofenac], in data set [4], the “permeability class of PAMPA control” value is on record as “medium”. On to `O=C(N[C@H](CO)[C@H](O)c1ccc([N+](=O)[O-])cc1)C(Cl)Cl` [Chloramphenicol], for which the “permeability class of PAMPA control” value in data set [4] was “high”.
